Patent publication US20110305637A1, “RADIOLABELLED PDE10 LIGANDS” (Janssen Pharmaceutica N.V., priority 2009, published 2011)
Values joined by “and” are separate entries in the source; they are usually repeats but may differ in a detail not shown here. Identical values can stand only once.

Assay: Biodistribution study in male Wistar rats
Type: in vivo, rat
Description: (§1) The biodistribution study of [^18F]B-1 was carried out in male Wistar rats (body weight 250-350 g) at 2 min, 30 min and 60 min post injection (p.i.) (n=3/time point). Rats were injected with about 1.1 MBq of the tracer via tail vein under anesthesia (2.5% Isoflurane in O2 at 1 L/min flow rate) and sacrificed by decapitation at above specified time points. Blood and major organs were collected in tared tubes and weighed. The radioactivity in blood, organs and other body parts was measured using an automated gamma counter The distribution of radioactivity in different parts of the body at different time points p.i. of the tracer was calculated and expressed as percentage of injected dose (% ID), and as percentage of injected dose per gram tissue (% ID/g) for the selected organs. % ID is calculated as cpm in organ/total cpm recovered. For calculation of total radioactivity in blood, blood mass was assumed to be 7% of the body mass.
as §1, with “[^18F]B-2” for “[^18F]B-1”, “270-340” for “250-350”

[1] = 2 min p.i., % ID/g values normalized for the body weight
[2] = 2 min p.i., normalized for body weight
[3] = 30 min p.i., % ID/g values normalized for the body weight

[18F]CCCn1cc(-c2ccncc2)c(-c2ccc(OCc3ccc4ccccc4n3)cc2)n1 [[^18F]B-1]
% ID in Carcass (2 min p.i.): 27.70 ± 0.7 % ID | % ID in Cerebellum (2 min p.i.): 0.096 ± 0.0 % ID | % ID in Cerebrum total (2 min p.i.): 0.4 % ID and 0.407 ± 0.1 % ID | % ID in Cortex (2 min p.i.): 0.072 ± 0.01 % ID | % ID in Heart (2 min p.i.): 0.87 ± 0.1 % ID | % ID in Hippocampus (2 min p.i.): 0.013 ± 0.00 % ID | % ID in Intestines (2 min p.i.): 8.89 ± 0.5 % ID | % ID in Kidneys (2 min p.i.): 5.31 ± 0.7 % ID | % ID in Liver (2 min p.i.): 48.20 ± 1.8 % ID | % ID in Lungs (2 min p.i.): 2.79 ± 0.6 % ID | % ID in Rest of cerebrum (2 min p.i.): 0.307 ± 0.05 % ID | % ID in Spleen + Pancreas (2 min p.i.): 1.63 ± 0.1 % ID | % ID in Stomach (2 min p.i.): 1.74 ± 0.2 % ID | % ID in Striatum (2 min p.i.): 0.015 % ID and 0.015 ± 0.00 % ID | % ID in Urine (2 min p.i.): 0.09 ± 0.0 % ID | % ID/g in Blood (2 min p.i.): 0.19 ± 0.02 % ID/g | % ID/g in Cerebellum (2 min p.i.): 0.39 ± 0.06 % ID/g | % ID/g in Cerebrum + Cerebellum (2 min p.i.): 0.33 ± 0.05 % ID/g | % ID/g in Cerebrum total (2 min p.i.): 0.31 ± 0.05 % ID/g | % ID/g in Cortex (2 min p.i.): 0.40 ± 0.11 % ID/g | % ID/g in Heart (2 min p.i.): 1.06 ± 0.20 % ID/g | % ID/g in Liver (2 min p.i.): 3.79 ± 0.19 % ID/g | % ID/g in Lungs (2 min p.i.): 2.36 ± 0.75 % ID/g | % ID/g in Rest of cerebrum (2 min p.i.): 0.30 ± 0.04 % ID/g | % ID/g in Spleen + Pancreas (2 min p.i.): 1.18 ± 0.17 % ID/g | striatum/blood ratio [1]: 2.1 | striatum/cortex ratio [1]: 1.0 | striatum/hippocampus ratio [1]: 2.0 | total brain uptake of the tracer (2 min p.i., % of injected dose): ~0.5% | % ID/g × kg in Blood [2]: 0.05 ± 0.00 % ID/g × kg | % ID/g × kg in Cerebellum [2]: 0.100 ± 0.02 % ID/g × kg | % ID/g × kg in Cerebrum + Cerebellum [2]: 0.08 ± 0.01 % ID/g × kg | % ID/g × kg in Cerebrum total [2]: 0.080 ± 0.01 % ID/g × kg | % ID/g × kg in Cortex [2]: 0.103 ± 0.03 % ID/g × kg | % ID/g × kg in Heart [2]: 0.27 ± 0.05 % ID/g × kg | % ID/g × kg in Hippocampus [2]: 0.052 ± 0.01 % ID/g × kg | % ID/g × kg in Kidneys [2]: 0.57 ± 0.07 % ID/g × kg | % ID/g × kg in Liver [2]: 0.97 ± 0.05 % ID/g × kg | % ID/g × kg in Lungs [2]: 0.60 ± 0.19 % ID/g × kg | % ID/g × kg in Rest of cerebrum [2]: 0.077 ± 0.01 % ID/g × kg | % ID/g × kg in Spleen + Pancreas [2]: 0.30 ± 0.04 % ID/g × kg | % ID/g × kg in Striatum [2]: 0.102 ± 0.01 % ID/g × kg | % ID in Blood (30 min p.i.): 2.12 ± 0.1 % ID | % ID in Carcass (30 min p.i.): 25.24 ± 1.7 % ID | % ID in Cerebellum (30 min p.i.): 0.021 ± 0.0 % ID | % ID in Cerebrum total (30 min p.i.): 0.158 ± 0.01 % ID | % ID in Cortex (30 min p.i.): 0.018 ± 0.00 % ID | % ID in Heart (30 min p.i.): 0.22 ± 0.0 % ID | % ID in Hippocampus (30 min p.i.): 0.004 ± 0.00 % ID | % ID in Intestines (30 min p.i.): 14.44 ± 3.0 % ID | % ID in Kidneys (30 min p.i.): 1.55 ± 0.1 % ID | % ID in Liver (30 min p.i.): 49.64 ± 5.3 % ID | % ID in Lungs (30 min p.i.): 1.81 ± 0.0 % ID | % ID in Rest of cerebrum (30 min p.i.): 0.122 ± 0.00 % ID | % ID in Spleen + Pancreas (30 min p.i.): 0.42 ± 0.1 % ID | % ID in Stomach (30 min p.i.): 4.60 ± 0.6 % ID | % ID in Striatum (30 min p.i.): 0.014 ± 0.00 % ID | % ID in Urine (30 min p.i.): 0.61 ± 0.3 % ID | % ID/g in Blood (30 min p.i.): 0.12 ± 0.01 % ID/g | % ID/g in Cerebellum (30 min p.i.): 0.09 ± 0.01 % ID/g | % ID/g in Cerebrum + Cerebellum (30 min p.i.): 0.12 ± 0.01 % ID/g | % ID/g in Cerebrum total (30 min p.i.): 0.12 ± 0.01 % ID/g | % ID/g in Cortex (30 min p.i.): 0.11 ± 0.02 % ID/g | % ID/g in Heart (30 min p.i.): 0.26 ± 0.02 % ID/g | % ID/g in Hippocampus (30 min p.i.): 0.08 ± 0.01 % ID/g | % ID/g in Kidneys (30 min p.i.): 0.64 ± 0.04 % ID/g | % ID/g in Liver (30 min p.i.): 4.00 ± 0.37 % ID/g | % ID/g in Lungs (30 min p.i.): 1.38 ± 0.11 % ID/g | % ID/g in Rest of cerebrum (30 min p.i.): 0.12 ± 0.01 % ID/g | % ID/g in Spleen + Pancreas (30 min p.i.): 0.27 ± 0.01 % ID/g | % ID/g in Striatum (30 min p.i.): 0.41 ± 0.00 % ID/g | striatum/blood ratio [3]: 3.5 | striatum/cerebellum ratio [3]: 4.6 | striatum/cortex ratio [3]: 3.9 | striatum/hippocampus ratio [3]: 5.1
